Results on four compounds are retold here after patent publication US5369126A, “Nonatetraenoic acid derivative for use in treating acne” (Hoffmann-La Roche Inc., priority 1993, dated 1994).

Like-named read-outs stand apart in the source and are kept apart here.

Data set [1] deals with rhino mouse utricles. In words: Rhino mouse utricle assay, oral dosing. As to conditions: 3 weeks, vs solvent-treated control. It is filed as in vivo. The protocol:
(§1) Male and female rhino mice were weighed prior to the start of an experiment. For topical studies, test compounds are dissolved in 100% acetone and 100 μl applied to the dorsa of the mice five times a week, once daily, for three weeks. For oral studies, test compounds were dissolved in 100% propylene glycol and 100 μl given by oral intubation 5 times a week, once daily, for three weeks. Final body weights were recorded at the time of sacrifice, done by CO2 inhalation. A flap of skin from the dorsa was cut out and processed by histological methods to produce a whole mount of the tissue. Utricle size was measured by image analysis using either the Leitz TAS Plus system or the Ultimage system on a modified MACINTOSH computer. Data is given as the % change from solvent-treated control tissue (Tables 3 and 4).

A short description of data set [2]: Toxicity observed in the acne models of Examples 2-4. It is filed as in vivo. The protocol: The compound of the invention was tested as described in Examples 2-4, below, in several acne models.
Data set [3] relates to hamster ear sebaceous glands. The data set is described as follows: Hamster ear sebaceous gland assay, oral dosing. It is filed as in vivo, Golden Syrian hamster (male). As to conditions: 4 weeks. Here is the method: Charles River Golden Syrian male hamsters, weighing between 150 to 160 grams, were housed for one month after receipt before dosing with compounds. […] Fresh solutions were made up weekly.
Hamsters were given 0.2 ml of drug solution via oral intubation. Animals were dosed daily for five days, rested for two days, and dosed again for five days until 20 doses were given. Hamsters were weighed at the beginning and end of the dosing regimen.
Hamsters were sacrificed by CO2 inhalation, and the ears removed for histological evaluation. One ear was fixed with 10% buffered formalin, processed for paraffin embedding, sectioned, and stained with hematoxylin and eosin (H&E). The area of sebaceous glands in cross-sections of hamster ears was examined by image analysis using a Leitz TAS Plus system.
Data is given as the average area of 30-40 sebaceous glands as percent of the control (solvent-treated) sections.

The subject of data set [4] is human sebaceous cells (sebocytes). In words: Inhibition of human sebocyte proliferation in vitro. The data set is classed as cell-based. The conditions noted are these: read-out: ED50, inhibition of human sebocyte proliferation in vitro. Here is the method:
The cells are cultured in Iscove's medium containing 10% fetal calf serum and 4 μg/ml dexamethasone.
Cells are plated in medium without the test compound and then given test compound in fresh medium 24-48 hours after the initial plating. The cultures are given fresh medium containing the test compound, every 48 hours. On the day of harvesting, the cultures are rinsed with 0.03% EDTA in PBS to remove only the 3T3 fibroblasts, followed by incubation in 0.05% trypsin/0.03% EDTA. The cells are suspended, mixed vigorously to prepare a single cell suspension and counted in a hemocytometer.
All test compounds are handled in the following manner. Stock solutions are made up as 10^-2 M solutions in DMSO and stored at -20° C. in the dark. Solutions are never used after one month of storage. During experimental use, the solutions, which have been aliquoted, are brought to room temperature and used by diluting directly into complete medium to the appropriate concentration.

Data set [5] relates to rhino mouse utricles. In words: Rhino mouse utricle assay, topical dosing. As to conditions: 3 weeks, vs solvent-treated control. It is filed as in vivo. The protocol:
as §1

Data set [6] has as its system acne. As to conditions: Farrell 1980; Hammerstein 1975; Lyons 1982; Weissman 1985; cited from earlier work.
For data set [7], the system named is human sebaceous glands. As to conditions: Landthaler et al., 1980; cited from earlier work.
In data set [8] the test system is Syrian hamster ear sebaceous gland. The conditions noted are these: Plewig et al., 1981; cited from earlier work.
The conditions of data set [9]: in vivo; cited from earlier work.
Setting [10] is: oral 0.25 mg/kg in propylene glycol.
Where [11] appears, read: oral 1.25 mg/kg in propylene glycol.
The mark [12] stands for this setting: oral 5 mg/kg in propylene glycol.
Where [13] appears, read: Experiment 2, oral 0.5 mg/kg, vs solvent-treated control.
Where [14] appears, read: Experiment 2, oral 2.5 mg/kg, vs solvent-treated control.
The mark [15] stands for this setting: Experiment 2, oral 5 mg/kg, vs solvent-treated control.
The mark [16] stands for this setting: Experiment 2, oral 10 mg/kg, vs solvent-treated control.
[17] abbreviates: Experiment 1, topical 0.01 % solution in acetone.
Setting [18] is: Experiment 1, topical 0.1 % solution in acetone.
Setting [19] is: Experiment 2, topical 0.001 % solution in acetone.
Where [20] appears, read: Experiment 2, topical 0.01 % solution in acetone.
Where [21] appears, read: Experiment 2, topical 0.1 % solution in acetone.

For `CCCCCCCCCOc1c(C)cc(C)cc1/C=C/C(C)=C/C=C/C(C)=C/C(=O)O` [Compound I, (all-E)-3,7-dimethyl-9-[3,5-dimethyl-2-(nonyloxy)-phenyl]-2,4,6,8-nonatetraenoic acid], the “% Decrease, rhino mouse utricle size” value in [1] (setting [10]) is reported as -23%; in data set [1] (setting [11]) it was -23%; in [1] (setting [12]) it was -28%; in data set [5] (setting [17]), -10%; in [5] (setting [18]) it was -42%; in data set [5] (setting [19]), -1%. Also, the “% Decrease, rhino mouse utricle size” value in data set [5] (setting [20]) was -11%; in data set [5] (setting [21]), -30%. Also, in data set [2], the “toxicity at all doses tested” value is listed as “non-toxic at all doses tested”. Moreover, the “% Decrease, hamster ear sebaceous gland size” value in data set [3] (Experiment 1, oral 0.5 mg/kg, vs solvent-treated control) was -19%; in data set [3] (Experiment 1, oral 1.5 mg/kg, vs solvent-treated control), -27%; in data set [3] (Experiment 1, oral 5 mg/kg, vs solvent-treated control) it was -33%; in data set [3] (setting [13]), -11%; in data set [3] (setting [14]), -18%; in data set [3] (setting [15]) it was -24%. Moreover, the “% Decrease, hamster ear sebaceous gland size” value in data set [3] (setting [16]) was -33%; in data set [3] (Experiment 3a, vehicle = Propylene Glycol, oral 0.5 mg/kg), -19%; in data set [3] (Experiment 3a, vehicle = Propylene Glycol, oral 1.6 mg/kg) it was -27%; in data set [3] (Experiment 3a, vehicle = Propylene Glycol, oral 6 mg/kg), -33%; in data set [3] (Experiment 3b, vehicle = Labrafil, oral 0.6 mg/kg), -18%; in data set [3] (Experiment 3b, vehicle = Labrafil, oral 1.6 mg/kg) it was -26%. For the same compound, the “% Decrease, hamster ear sebaceous gland size” value in [3] (Experiment 3b, vehicle = Labrafil, oral 5 mg/kg) is recorded as -26%; in data set [3] (Experiment 3c, vehicle = Tween 80, oral 0.5 mg/kg), -13%; in data set [3] (Experiment 3c, vehicle = Tween 80, oral 1.4 mg/kg), -13%; in data set [3] (Experiment 3c, vehicle = Tween 80, oral 6 mg/kg) it was -22%. Besides, the IC50 in data set [4] (amount necessary to inhibit proliferation by 50% vs diluent-treated control, tested at 10^-6 to 10^-9 M) came to 10 nM.

As to `CC(=O)S[C@@H]1CC2=CC(=O)CC[C@]2(C)[C@H]2CC[C@@]3(C)[C@@H](CC[C@@]34CCC(=O)O4)[C@H]12` [spironolactone], in [6], the “effect on sebum production” value is “reduce sebum production” and the “effect on severity of acne” value was “reduce the severity of acne”.

As for `CC1=C(/C=C/C(C)=C/C=C/C(C)=C\C(=O)O)C(C)(C)CCC1` [13-cis retinoic acid, reference compound], the “reduction of the size of human sebaceous glands” value in data set [7] is “up to 90%”. Further, the “sensitivity of Syrian hamster ear sebaceous gland” value in data set [8] was “sensitive”. Also, the side effects result in data set [9] is on record as “deleterious side effects such as hypervitaminosis A”. Further, the “% Decrease, rhino mouse utricle size” value is reported as -19% in [1] (setting [10]); -39% in data set [1] (setting [11]); -47% in data set [1] (setting [12]); -44% in data set [5] (setting [17]); -55% in data set [5] (setting [18]); -27% in [5] (setting [19]). The “% Decrease, rhino mouse utricle size” value in [5] (setting [20]) is listed as -58%; in data set [5] (setting [21]), -61%. In addition, the “% Decrease, hamster ear sebaceous gland size” value is given as -13% in [3] (setting [13]), -24% in [3] (setting [14]), -34% in data set [3] (setting [15]) and -30% in [3] (setting [16]). For the same compound, in data set [4], the IC50 was found to be 50 nM. For the same compound, the “effect on sebum production” value in [6] is given as “reduce sebum production”. Moreover, the “effect on severity of acne” value in data set [6] was “reduce the severity of acne”.

For the compound `CC(=O)O[C@]1(C(C)=O)CC[C@H]2[C@@H]3C=C(Cl)C4=CC(=O)[C@@H]5C[C@@H]5[C@]4(C)[C@H]3CC[C@@]21C` [cyproterone acetate], in data set [6], the “effect on sebum production” value is “reduce sebum production” and the “effect on severity of acne” value is listed as “reduce the severity of acne”.
